Experimental findings from ChEMBL document CHEMBL4419171, “SMAC mimetic compounds as apoptosis inducers” (2013) are described below.

Structures are written as SMILES.

Common to all, as to format: functional
For one assay, the system named is HL-60. Description: Cytotoxicity against human HL60 cells assessed as cell viability at 10 nM in presence of 100 ng/ml cisplatin incubated for 72 hrs by WST1 dye based assay relative to control.
Assay [1] deals with K562. Kind of assay: Cytotoxicity against human K562 cells assessed as cell viability at 10 nM in presence of 10 ng/ml cisplatin incubated for 72 hrs by WST1 dye based assay relative to control. In general terms: Formazan colour is commonly taken as a measure of viable cells.
Assay [2] concerns K562. Kind of assay: Cytotoxicity against human K562 cells assessed as cell viability at 0.1 nM in presence of 100 ng/ml cisplatin incubated for 72 hrs by WST1 dye based assay relative to control.
The subject of assay [3] is K562. Description: Cytotoxicity against human K562 cells assessed as cell viability at 100 nM in presence of 100 nM taxol incubated for 72 hrs by WST1 dye based assay relative to control. To be noted: K562, 72 h, read-out: Activity.

For `CC[C@H](N)C(=O)N[C@@H]1C(=O)N2[C@@H](CC[C@@H]1CO)CC[C@H]2C(=O)NC(c1ccccc1)c1ccccc1.O=C(O)C(F)(F)F`, the Activity is 43% in the assay with HL-60 and 48% in the assay on K562 [1].
Take `CC[C@H](N)C(=O)N[C@@H]1C(=O)N2[C@@H](CC[C@@H]1Cn1cc(CO[C@H](C)[C@H](NC(=O)[C@H](C)NC)C(=O)N3CCC[C@H]3Cn3nnnc3Sc3ccccc3)nn1)CC[C@H]2C(=O)NC(c1ccccc1)c1ccccc1.O=C(O)C(F)(F)F`: in the assay with K562 [2], the Activity is recorded as 30%. Further, the viability at 0.1 µM with K562 [3] was determined as 27%.
